From patent US5072038A, “2,3,4,5-tetrahalogenobenzene derivatives” (Bayer Aktiengesellschaft, priority 1984, dated 1991)
Values after ≈ are worked out from the molar mass of the structure shown. Structures can show the parent of a compound that is named as a salt. Where two headings read alike, the source gives them in different places.

Legend:
Assay in all cases: MIC, agar dilution test
Assay type in all cases: cell-based
E. coli 445/7 = details: Escherichia coli, agar dilution test/isosensitest medium
Excerpt: (§1) | Agar dilution test/isosensitest medium

E. coli Neumann = details: Escherichia coli, agar dilution test/isosensitest medium
Excerpt: as §1

E. coli T 7 = details: Escherichia coli, T7
Excerpt: as §1

Klebsiella 6179 = details: agar dilution test/isosensitest medium
Excerpt: as §1

Klebsiella 63 = details: agar dilution test/isosensitest medium
Excerpt: as §1

Providencia 12052 = details: agar dilution test/isosensitest medium
Excerpt: as §1

Staph. 133 = details: agar dilution test/isosensitest medium
Excerpt: as §1

Staph. 1756 = details: agar dilution test/isosensitest medium
Excerpt: as §1

Staph. FK 422 = details: agar dilution test/isosensitest medium
Excerpt: as §1

Proteus 1017 = details: agar dilution test/isosensitest medium
Excerpt: as §1

Providencia 12012 = details: agar dilution test/isosensitest medium
Excerpt: as §1

Pseudom. Ellsworth = details: agar dilution test/isosensitest medium
Excerpt: as §1

[1] = E. coli 445/7 (first MIC table)
[2] = E. coli T 7, agar dilution test/isosensitest medium, read-out: MIC
[3] = 445/7, E. coli 455/7 (second MIC table)

Row | Compound | MIC (E. coli 445/7; [1]) | MIC (E. coli Neumann) | MIC (E. coli T 7; [2]) | MIC (Klebsiella 6179) | MIC (Klebsiella 63) | MIC (Providencia 12052) | MIC (Staph. 133) | MIC (Staph. 1756) | MIC (Staph. FK 422) | MIC (E. coli 445/7; [3]) | MIC (Proteus 1017) | MIC (Providencia 12012) | MIC (Pseudom. Ellsworth) | MIC (E. coli T 7)
1 | CC1CN(c2c(Cl)cc3c(=O)c(C(=O)O)cn(C4CC4)c3c2F)CC(C)N1 (stereo not drawn) [Example 5] | 8 µg/mL (≈ 20.3 µM) | ≤ 0.015 µg/mL | ≤ 0.015 µg/mL | 0.03 µg/mL (≈ 0.0762 µM) | 0.03 µg/mL (≈ 0.0762 µM) | 32 µg/mL (≈ 81.3 µM) | 0.5 µg/mL (≈ 1.27 µM) | 0.5 µg/mL (≈ 1.27 µM) | 0.25 µg/mL (≈ 0.635 µM) | – | – | – | – | –
2 | CC1CN(c2c(Cl)cc3c(=O)c(C(=O)O)cn(C4CC4)c3c2Cl)CCN1 (stereo not drawn) [Example 22, 6,8-dichloro-1-cyclopropyl-1,4-dihydro-7-(3-methyl-1-piperazinyl)-4-oxo-3-quinolinecarboxylic acid] | – | ≤ 0.015 µg/mL | ≤ 0.015 µg/mL | 0.06 µg/mL (≈ 0.151 µM) | 0.03 µg/mL (≈ 0.0757 µM) | 2 µg/mL (≈ 5.05 µM) | 0.125 µg/mL (≈ 0.315 µM) | 0.125 µg/mL (≈ 0.315 µM) | 0.125 µg/mL (≈ 0.315 µM) | 2 µg/mL (≈ 5.05 µM) | 0.06 µg/mL (≈ 0.151 µM) | 0.06 µg/mL (≈ 0.151 µM) | – | –
3 | CC(=O)CCN1CCN(c2c(Cl)cc3c(=O)c(C(=O)O)cn(C4CC4)c3c2F)CC1 [Example 12, 6-chloro-1-cyclopropyl-8-fluoro-1,4-dihydro-4-oxo-7-[4-(3-oxobutyl)-1-piperazinyl]-3-quinolinecarboxylic acid] | – | ≤ 0.015 µg/mL | ≤ 0.015 µg/mL | 0.06 µg/mL (≈ 0.138 µM) | ≤ 0.015 µg/mL | 16 µg/mL (≈ 36.7 µM) | 0.25 µg/mL (≈ 0.574 µM) | 0.25 µg/mL (≈ 0.574 µM) | 0.25 µg/mL (≈ 0.574 µM) | 8 µg/mL (≈ 18.4 µM) | 0.03 µg/mL (≈ 0.0688 µM) | ≤ 0.015 µg/mL | 0.125 µg/mL (≈ 0.287 µM) | –
4 | CC1CN(c2c(Cl)cc3c(=O)c(C(=O)O)cn(C4CC4)c3c2F)CCN1 (stereo not drawn) [Example 2] | 8 µg/mL (≈ 21.1 µM) | ≤ 0.015 µg/mL | ≤ 0.015 µg/mL | 0.03 µg/mL (≈ 0.079 µM) | 0.03 µg/mL (≈ 0.079 µM) | 16 µg/mL (≈ 42.1 µM) | 0.25 µg/mL (≈ 0.658 µM) | 0.5 µg/mL (≈ 1.32 µM) | 0.25 µg/mL (≈ 0.658 µM) | – | – | 0.03 µg/mL (≈ 0.079 µM) | – | –
5 | CCN1CCN(c2c(Cl)cc3c(=O)c(C(=O)O)cn(C4CC4)c3c2F)CC1 [Example 10, 6-chloro-1-cyclopropyl-7-(4-ethyl-1-piperazinyl)-8-fluoro-1,4-dihydro-4-oxo-3-quinolinecarboxylic acid] | 16 µg/mL (≈ 40.6 µM) | ≤ 0.015 µg/mL | – | 0.06 µg/mL (≈ 0.152 µM) | 0.125 µg/mL (≈ 0.317 µM) | – | – | – | – | – | – | – | – | 0.025 µg/mL (≈ 0.0635 µM)
6 | CN1CCN(c2c(Cl)cc3c(=O)c(C(=O)O)cn(C4CC4)c3c2F)CC1 [Example 6] | 4 µg/mL (≈ 10.5 µM) | ≤ 0.015 µg/mL | ≤ 0.015 µg/mL | 0.015 µg/mL (≈ 0.0395 µM) | 0.015 µg/mL (≈ 0.0395 µM) | 4 µg/mL (≈ 10.5 µM) | 0.25 µg/mL (≈ 0.658 µM) | 0.5 µg/mL (≈ 1.32 µM) | 0.025 µg/mL (≈ 0.0658 µM) | – | 0.06 µg/mL (≈ 0.158 µM) | 0.03 µg/mL (≈ 0.079 µM) | – | –
7 | CN1CCN(c2c(F)cc3c(=O)c(C(=O)O)cn(C4CC4)c3c2Cl)CC1 [Example 19, 8-chloro-1-cyclopropyl-6-fluoro-1,4-dihydro-7-(4-methyl-1-piperazinyl)-4-oxo-3-quinolinecarboxylic acid] | – | ≤ 0.015 µg/mL | ≤ 0.015 µg/mL | 0.03 µg/mL (≈ 0.079 µM) | 0.03 µg/mL (≈ 0.079 µM) | 4 µg/mL (≈ 10.5 µM) | 0.06 µg/mL (≈ 0.158 µM) | 0.06 µg/mL (≈ 0.158 µM) | 0.06 µg/mL (≈ 0.158 µM) | 1 µg/mL (≈ 2.63 µM) | 0.03 µg/mL (≈ 0.079 µM) | 0.03 µg/mL (≈ 0.079 µM) | 0.125 µg/mL (≈ 0.329 µM) | –
8 | O=C(O)c1cn(C2CC2)c2c(F)c(N3CCNC(C4CCCCC4)C3)c(Cl)cc2c1=O (stereo not drawn) [Example 8] | – | – | ≤ 0.015 µg/mL | – | – | – | 0.06 µg/mL (≈ 0.134 µM) | 0.06 µg/mL (≈ 0.134 µM) | 0.06 µg/mL (≈ 0.134 µM) | – | – | – | – | –
9 | O=C(O)c1cn(C2CC2)c2c(F)c(N3CCNCC3)c(Cl)cc2c1=O [Example 1, 6-chloro-1-cyclopropyl-8-fluoro-1,4-dihydro-4-oxo-7-(1-piperazinyl)-3-quinolinecarboxylic acid] | 4 µg/mL (≈ 10.9 µM) | ≤ 0.015 µg/mL | ≤ 0.015 µg/mL | 0.03 µg/mL (≈ 0.082 µM) | ≤ 0.015 µg/mL | 8 µg/mL (≈ 21.9 µM) | 0.25 µg/mL (≈ 0.683 µM) | 0.25 µg/mL (≈ 0.683 µM) | 0.25 µg/mL (≈ 0.683 µM) | – | ≤ 0.015 µg/mL | ≤ 0.015 µg/mL | 0.06 µg/mL (≈ 0.164 µM) | –
10 | CCn1cc(C(=O)O)c(=O)c2cc(F)c(N3CCNCC3)cc21 [Norfloxacin, 1-ethyl-6-fluoro-1,4-dihydro-4-oxo-7-(1-piperazinyl)-3-quinolinecarboxylicacid, reference compound] | – | 0.06 µg/mL (≈ 0.188 µM) | 0.03 µg/mL (≈ 0.0939 µM) | 0.25 µg/mL (≈ 0.783 µM) | 0.125 µg/mL (≈ 0.391 µM) | 64 µg/mL (≈ 200 µM) | 0.5 µg/mL (≈ 1.57 µM) | 1 µg/mL (≈ 3.13 µM) | 0.5 µg/mL (≈ 1.57 µM) | 16 µg/mL (≈ 50.1 µM) | 0.03 µg/mL (≈ 0.0939 µM) | 0.03 µg/mL (≈ 0.0939 µM) | 0.125 µg/mL (≈ 0.391 µM) | –
11 | O=C(O)c1cn(C2CC2)c2c(F)c(N3CCN(CCO)CC3)c(Cl)cc2c1=O [Example 7] | 16 µg/mL (≈ 39 µM) | ≤ 0.015 µg/mL | ≤ 0.015 µg/mL | 0.06 µg/mL (≈ 0.146 µM) | 0.06 µg/mL (≈ 0.146 µM) | 16 µg/mL (≈ 39 µM) | 0.25 µg/mL (≈ 0.61 µM) | 0.5 µg/mL (≈ 1.22 µM) | 0.5 µg/mL (≈ 1.22 µM) | – | 0.125 µg/mL (≈ 0.305 µM) | – | – | –
12 | CCC1CN(c2c(Cl)cc3c(=O)c(C(=O)O)cn(C4CC4)c3c2F)CCN1 (stereo not drawn) [Example 3] | 8 µg/mL (≈ 20.3 µM) | ≤ 0.015 µg/mL | ≤ 0.015 µg/mL | ≤ 0.015 µg/mL | 0.03 µg/mL (≈ 0.0762 µM) | 16 µg/mL (≈ 40.6 µM) | 0.25 µg/mL (≈ 0.635 µM) | 0.25 µg/mL (≈ 0.635 µM) | 0.25 µg/mL (≈ 0.635 µM) | – | – | – | – | –
13 | O=C(CN1CCN(c2c(Cl)cc3c(=O)c(C(=O)O)cn(C4CC4)c3c2F)CC1)c1ccccc1 [Example 14, 6-chloro-1-cyclopropyl-8-fluoro-1,4-dihydro-4-oxo-7-[4-(2-oxo-2-phenylethyl)-1-piperazinyl]-3-quinolinecarboxylic acid] | – | ≤ 0.015 µg/mL | ≤ 0.015 µg/mL | 0.25 µg/mL (≈ 0.517 µM) | 0.06 µg/mL (≈ 0.124 µM) | 16 µg/mL (≈ 33.1 µM) | – | – | – | 2 µg/mL (≈ 4.13 µM) | 0.125 µg/mL (≈ 0.258 µM) | 0.06 µg/mL (≈ 0.124 µM) | – | –
14 | O=C(O)c1cn(C2CC2)c2c(Cl)c(N3CCNCC3)c(F)cc2c1=O [Example 21, hydrochloride] | – | ≤ 0.015 µg/mL | ≤ 0.015 µg/mL | 0.03 µg/mL | 0.06 µg/mL | 1 µg/mL | 0.06 µg/mL | 0.125 µg/mL | 0.125 µg/mL | 1 µg/mL | 0.03 µg/mL | 0.06 µg/mL | – | –
15 | CC1CN(c2c(F)cc3c(=O)c(C(=O)O)cn(C4CC4)c3c2Cl)CCN1 (stereo not drawn) [Example 20, 8-chloro-1-cyclopropyl-6-fluoro-1,4-dihydro-7-(3-methyl-1-piperazinyl)-4-oxo-3-quinolinecarboxylic acid] | – | ≤ 0.015 µg/mL | ≤ 0.015 µg/mL | 0.03 µg/mL (≈ 0.079 µM) | ≤ 0.015 µg/mL | 4 µg/mL (≈ 10.5 µM) | 0.06 µg/mL (≈ 0.158 µM) | 0.06 µg/mL (≈ 0.158 µM) | 0.06 µg/mL (≈ 0.158 µM) | 1 µg/mL (≈ 2.63 µM) | ≤ 0.015 µg/mL | 0.03 µg/mL (≈ 0.079 µM) | 0.25 µg/mL (≈ 0.658 µM) | –
16 | CC1CN(c2c(Cl)cc3c(=O)c(C(=O)O)cn(C4CC4)c3c2F)CC(C)O1 (stereo not drawn) [Example 17, 6-chloro-1-cyclopropyl-8-fluoro-1,4-dihydro-7-(2,6-dimethyl-4-morpholinyl)-4-oxo-3-quinolinecarboxylic acid] | – | – | – | – | – | – | – | ≤ 0.015 µg/mL | ≤ 0.015 µg/mL | – | – | – | – | –
17 | CC(=O)CN1CCN(c2c(Cl)cc3c(=O)c(C(=O)O)cn(C4CC4)c3c2F)CC1.Cl [Example 13, 6-chloro-1-cyclopropyl-8-fluoro-1,4-dihydro-4-oxo-7-[4-(2-oxopropyl)-1-piperazinyl]-3-quinolinecarboxylic acid hydrochloride] | – | ≤ 0.015 µg/mL | ≤ 0.015 µg/mL | 0.06 µg/mL | ≤ 0.015 µg/mL | 16 µg/mL | 0.25 µg/mL | 0.25 µg/mL | 0.25 µg/mL | 8 µg/mL | ≤ 0.015 µg/mL | ≤ 0.015 µg/mL | 0.125 µg/mL | –
